For the experiment, the system named is E. coli WT-GFP vs G2058-humanized RFP, fluorescence, 24 h. Put plainly: E. coli strain growth, wild-type against G2058 humanized RFP mutant – G2058 mutant RFP vs wild-type GFP, cherry-pick, two tests, dose response (AID 1035470).
[1] abbreviates: measured here: G2058 humanized mutant RFP growth.
Where [2] appears, read: E. coli WT-GFP vs G2058-humanized RFP mixed culture, total growth OD600, 24 h.

One may read the AC50 as the concentration giving half of the maximal activity seen.

Results filed as inconclusive are left out. Activity calls are given as the source filed them.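 Rule for the calls: active = compound lowering the normal-ribosome reporter at least twice as much as the humanized-ribosome reporter, growth loss under a set limit; inconclusive = no clear call, values can overlap the other calls; inactive = the rest.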

Take `COc1ccc(CC(=O)NCc2csc(-c3cccs3)n2)cc1OC`: the AC50 was > 100 µM (inactive).

On to `CCOc1ccccc1C(=O)NCC(=O)OCCOc1cccc(Cl)c1`, for which the AC50 under setting [1] was over 100 µM.

On to `CC(C)CNC(=O)c1cccc(NC(=O)C(C)Oc2ccccc2)c1` (configuration not stated), for which the AC50 is > 100 µM (inactive).

As to `COc1ccc2cc(CO)c3cc(OC)c(OC)cc3c2c1`, the AC50 was over 100 µM under setting [2] and over 100 µM under setting [1].

As to `COc1ccc(Nc2nc(N)c([N+](=O)[O-])c(N3CCOCC3)n2)cc1`, the AC50 was > 100 µM (inactive). The molecule also displayed an AC50 under setting [2] of over 100 µM.

As to `O=S(=O)(NC1c2cccc3cccc(c23)C1Sc1ncccn1)c1ccccc1` (configuration not stated), the AC50 was > 100 µM (inactive). Further, the half-maximal activity concentration (AC50) under setting [2] came out at 3.21 µM.

Consider `CCC1(C(=O)OC)CCc2c(cc(OC)c3ccccc23)C1=O` (configuration not stated), for which the AC50 is > 100 µM (inactive).

On to `Cc1csc2c(N3CCC(C(=O)O)CC3)ncnc12`, for which the AC50 was > 100 µM (inactive). The molecule also showed an AC50 under setting [2] of over 100 µM. The AC50 under setting [1] was 50.4 µM.

As to `NS(=O)(=O)c1ccc(Nc2c([N+](=O)[O-])cncc2[N+](=O)[O-])cc1`, the AC50 was > 100 µM (inactive).

As for `COCC#Cc1ccc2c(c1)O[C@H](CN(C)C(=O)c1ccccc1)[C@@H](C)CN([C@H](C)CO)S2(=O)=O`, under setting [2], the AC50 is over 100 µM.

In the case of `COc1ccc(C#Cc2ccc([C@@H]3[C@@H](CO)N4CCCCN(C(=O)Nc5ccccc5F)C[C@H]34)cc2)cc1`, the AC50 was > 100 µM (inactive).

Take `COc1ccc(NC(=O)c2sccc2-n2cccc2)cc1`: the AC50 is > 100 µM (inactive). Also, under setting [2], the half-maximal activity concentration (AC50) was over 100 µM.

Take `N#Cc1c(N)nc(SCc2ccccc2)c(C#N)c1-c1ccco1`: the AC50 is > 100 µM (inactive).

Turning to `CC(C)Nc1nnc(SCC(=O)Nc2sccc2C#N)s1`, the AC50 was > 100 µM (inactive).

In the case of `CN(C)CCNc1ncnc2c1sc1nc(N3CCCC3)c3c(c12)CC(C)(C)OC3`, the AC50 is > 100 µM (inactive). The molecule also registered a concentration at half-maximal activity (AC50) under setting [2] of over 100 µM.

Molecule `COc1ccc(OC)c(NC(=O)COc2ccc(S(=O)(=O)NC(C)C)cc2)c1` showed a concentration at half-maximal activity (AC50) under setting [2] of over 100 µM.

Turning to `CCn1ncc(Br)c1C(=O)Nc1ccc2c(c1)OCCO2`, the AC50 was > 100 µM (inactive).

Consider `CNC(=O)C[C@H]1CC[C@@H]2[C@@H](COc3ccc(NC(=O)Nc4ccc(F)c(F)c4)cc3C(=O)N2C)O1`, for which the AC50 is > 100 µM (inactive).

Under setting [2], `O=C1c2ccccc2C(c2nnnn2Cc2ccccc2)N1Cc1cccc(F)c1` (configuration not stated) had an AC50 of over 100 µM.

With `Cc1ccc(Nc2cc(C(=O)NCCCN3CCOCC3)c3ccccc3n2)cc1C`, the AC50 is > 100 µM (inactive). Further, the AC50 under setting [2] is over 100 µM.

Consider `O=C(CCCn1c(=S)[nH]c2ccsc2c1=O)Nc1ccc2c(c1)OCCO2`, for which the AC50 was > 100 µM (inactive).

Molecule `CC1Cc2cc(S(=O)(=O)N3CCN(c4cccc(Cl)c4)CC3)ccc2N1C(=O)C1CC1` (configuration not stated) displayed a concentration at half-maximal activity (AC50) under setting [2] of over 100 µM.

For the molecule `Cn1cc(CN2CCCC(C(=O)Nc3cccc(-c4cc5ccccc5[nH]4)c3)C2)cn1` (configuration not stated), the AC50 was > 100 µM (inactive).

As for `O=C(COC(=O)C1CC2C=CC1C2)Nc1ccc([N+](=O)[O-])cc1` (configuration not stated), the AC50 is over 100 µM under setting [2] and over 100 µM under setting [1].

`Cc1cccc(NC(=O)c2nc(S(=O)(=O)Cc3ccccc3)ncc2Cl)c1` had an AC50 under setting [2] of over 100 µM.

On to `O=C(c1ccc(Cl)cc1)N1CCN(c2cccc3[nH]ccc23)CC1`, for which the AC50 was > 100 µM (inactive). This molecule yielded an AC50 under setting [2] of over 100 µM.

In the case of `O=C(Nc1cccc(Cl)c1)N1C[C@H]2[C@@H](c3ccccc31)[C@H](CO)N2Cc1ccncc1`, the AC50 is > 100 µM (inactive).

With `COc1ccc(-c2nc3ccc(Cl)cn3c2Cc2cccc(F)c2)cc1OC`, the AC50 was > 100 µM (inactive).

Consider `Nc1ncncc1-c1ccc2ccccc2c1`, for which the AC50 was > 100 µM (inactive). Under setting [1], this molecule displayed an AC50 of 48.9 µM.

Take `O=C(Cn1cc(COc2c(F)c(F)cc(F)c2F)nn1)c1ccc(O)cc1`: the AC50 is > 100 µM (inactive). For the same molecule, the half-maximal activity concentration (AC50) under setting [2] is over 100 µM.

Regarding `CCn1nc(C(=O)OCc2cccc(S(=O)(=O)N(C)C)c2)c2ccccc2c1=O`, the AC50 is > 100 µM (inactive).

In the case of `CCN(CC)CC(=O)Nc1sc2c(c1C(=O)c1ccccc1OC)CCC2`, the AC50 is > 100 µM (inactive).

In turn, `Cc1cccc(NC(=O)c2c(C)nn(-c3ccccc3)c2Cl)c1` yielded an AC50 under setting [2] of over 100 µM.

Consider `CC1(C(=O)NS(=O)(=O)c2cccc(Cl)c2)CCN1C(=O)C1(c2ccc(Cl)cc2)CCC1` (configuration not stated), for which the AC50 is > 100 µM (inactive).

For `c1ccc(Nc2ccc3ccccc3c2)cc1`, the AC50 was over 100 µM. Under setting [1], the AC50 is over 100 µM.

In turn, `Cc1ccccc1-n1c([C@@H]2C[C@H]2c2ccccc2)n[nH]c1=S` yielded an AC50 under setting [2] of over 100 µM.

For the molecule `O=C(NCCO)c1cc2c([nH]c3ccccc32)c(-c2ccccc2)n1`, the AC50 is > 100 µM (inactive). In addition, the concentration at half-maximal activity (AC50) under setting [2] is over 100 µM. In addition, the half-maximal activity concentration (AC50) under setting [1] is over 100 µM.

For the molecule `Cc1ccc(S(=O)(=O)Nc2ccccc2CNc2cccc(C)n2)cc1`, the AC50 is > 100 µM (inactive). This molecule gave a concentration at half-maximal activity (AC50) under setting [2] of over 100 µM.

With `CC[n+]1c(C)cc2c(sc3ccccc32)c1C`, the AC50 under setting [2] is over 100 µM and the AC50 under setting [1] was over 100 µM.

On to `CN1C(=O)c2cccc3c(S(=O)(=O)NCCc4ccccc4)ccc1c23`, for which the AC50 was > 100 µM (inactive). The molecule further came in with a concentration at half-maximal activity (AC50) under setting [2] of over 100 µM.

Consider `Cn1nc(C(=O)Nc2cccc(S(=O)(=O)N3CCCCC3)c2)c2ccccc2c1=O`, for which the AC50 is > 100 µM (inactive). Under setting [2], this molecule gave an AC50 of over 100 µM.

Consider `Cc1cccc(CSCC(=O)N2CCN(S(=O)(=O)c3ccccc3C#N)CC2)c1`, for which the AC50 is > 100 µM (inactive).

Consider `C=CCN(CC=C)C(=O)c1ccc2nc(Cc3ccc(OC)c(OC)c3)oc2c1`, for which the AC50 was > 100 µM (inactive).

In the case of `O=C(NCc1ccco1)c1ccc(COc2cccc3ccccc23)cc1`, the AC50 is > 100 µM (inactive). This molecule gave an AC50 under setting [2] of over 100 µM.

For the molecule `CCOC(=O)c1cc(C)nc(N2CCCCC2)c1C#N`, the AC50 is > 100 µM (inactive). Also, under setting [2], the AC50 was over 100 µM.

As for `CCc1nnc(NS(=O)(=O)c2ccc(NC(=O)c3cccc(Cl)c3)cc2)s1`, the AC50 was > 100 µM (inactive). In addition, the AC50 under setting [2] was over 100 µM. This molecule also returned a half-maximal activity concentration (AC50) under setting [1] of over 100 µM.

Regarding `CC(C)(C)C1CCC(OC(=O)C[N+]2(C)CCCCC2)CC1` (configuration not stated), the AC50 was > 100 µM (inactive). Under setting [2], this molecule showed a half-maximal activity concentration (AC50) of over 100 µM.

Turning to `Cc1cc(C(=O)Nc2cccc3c2O[C@H](CN(C)S(=O)(=O)c2ccc(Cl)cc2)[C@H](C)CN([C@H](C)CO)C3=O)n(C)n1`, the AC50 is > 100 µM (inactive). This molecule displayed a concentration at half-maximal activity (AC50) under setting [1] of 32.9 µM.

Molecule `O=C(OCC1COc2ccccc2O1)c1ccccc1F` (configuration not stated) had a half-maximal activity concentration (AC50) under setting [1] of over 100 µM.

As to `CCN(CC)c1nc(Oc2ccc(C(=O)OC)cc2)nc(N2CCOCC2)n1`, the AC50 was > 100 µM (inactive).

Under setting [2], `Cc1cc(C)c(OCCN(C)Cc2ccccc2)c(Br)c1` registered an AC50 of over 100 µM.

`COc1cc(C2CC(=O)Oc3cc(C)cc(C)c32)cc(OC)c1OC` (configuration not stated): the AC50 is > 100 µM (inactive).

Under setting [2], `O=S(=O)(NOCc1ccc(Cl)cc1)c1ccc(Cl)cc1` yielded a half-maximal activity concentration (AC50) of over 100 µM.

Under setting [2], `COc1ccc(CN2C(=O)CC(Cc3cc(C)cc(C)c3)C2=O)cc1OC` (configuration not stated) showed an AC50 of over 100 µM.

`COc1cccc(CN(C)Cc2nc(Cc3ccccc3Cl)no2)c1`: the AC50 was > 100 µM (inactive). The concentration at half-maximal activity (AC50) under setting [2] is over 100 µM.

With `CCCCc1ccc(S(=O)(=O)Nc2ccc(C)c(NS(C)(=O)=O)c2)cc1`, the AC50 is > 100 µM (inactive).

As for `Cc1ccc(C)c(-c2[nH]ncc2CN2CCCC(CO)(Cc3ccccc3C)C2)c1` (configuration not stated), the AC50 was > 100 µM (inactive). Besides, the half-maximal activity concentration (AC50) under setting [2] is over 100 µM.

For the molecule `COC(=O)c1ccccc1NC(=O)c1ccc2c(c1)CC(C)O2` (configuration not stated), the AC50 was > 100 µM (inactive). In addition, the concentration at half-maximal activity (AC50) under setting [2] was 52.3 µM.

In turn, `Cc1ccc(-c2c[n+](CC(=O)Nc3ccccc3)c3n2CCC3)cc1` returned an AC50 under setting [1] of over 100 µM.

With `CC(C(=O)Nc1nc2ccccc2s1)n1cc([N+](=O)[O-])cn1` (configuration not stated), the AC50 is > 100 µM (inactive). Moreover, the AC50 under setting [2] is over 100 µM. Under setting [1], this molecule displayed an AC50 of over 100 µM.

`CCn1c(SCC(=O)Nc2ccc(OC)cc2)nc2nc3c(cc2c1=O)CCCC3` showed an AC50 under setting [2] of 47.7 µM.

As to `CC(C)Oc1ccc(C(CC(=O)O)NC(=O)C(Sc2ccccc2)c2ccccc2)cc1` (configuration not stated), the AC50 was > 100 µM (inactive).

Regarding `CN(C)CCCN(C(=O)CCSc1ccccc1)c1nc2cc3c(cc2s1)OCO3`, the AC50 is > 100 µM (inactive). Under setting [2], this molecule registered a concentration at half-maximal activity (AC50) of over 100 µM.

Molecule `CCC1CCCCN1C(=O)CSc1nnc(-c2cccc(Cl)c2)o1` (configuration not stated) showed an AC50 under setting [2] of over 100 µM.

On to `COc1cccc(NC(=O)CSc2nc3c(sc4ccccc43)c(=O)n2CCN(C)C)c1`, for which the AC50 was > 100 µM (inactive).

Regarding `COC(=O)c1sccc1NC(=O)CNC(=O)c1ccccc1`, the AC50 under setting [2] is over 100 µM.

As for `Cc1ncoc1C(=O)NCCC(c1ccccc1)c1ccccc1`, the AC50 was > 100 µM (inactive).

For `Cc1nn(CC(=O)OCCOc2ccc(Br)cc2)c(C)c1[N+](=O)[O-]`, the AC50 was > 100 µM (inactive).

For `COc1ccc(CN2CCC3CC2c2cc(Cl)ccc23)cc1` (configuration not stated), the AC50 was > 100 µM (inactive).

With `CSCCC1NC(=O)N(C(C)C(=O)Nc2cc(Cl)cc(Cl)c2)C1=O` (configuration not stated), the AC50 was > 100 µM (inactive). Further, the AC50 under setting [2] is over 100 µM. In addition, under setting [1], the AC50 was 7.38 µM.

`CC(=O)N1CCOc2ccc(S(=O)(=O)N(C)c3ccc(C)cc3)cc21`: the AC50 is > 100 µM (inactive).

`CN1CCN(c2nc(Nc3ccc(O)cc3)nc3ccccc23)CC1`: the AC50 is > 100 µM (inactive). The molecule further yielded an AC50 under setting [2] of over 100 µM.

Molecule `Cc1nn2c(NCc3ccccn3)cc(C(C)C)nc2c1-c1ccccc1` gave an AC50 under setting [2] of over 100 µM.

Turning to `CC(C)C[C@H]1COc2cc(Br)ccc2S(=O)(=O)N1`, the AC50 is > 100 µM (inactive). Under setting [2], the AC50 is over 100 µM. The half-maximal activity concentration (AC50) under setting [1] was over 100 µM.

On to `O=S1(=O)c2ccc(Br)cc2OCCC2CCCCN21` (configuration not stated), for which the AC50 was > 100 µM (inactive). Under setting [2], this molecule showed a half-maximal activity concentration (AC50) of over 100 µM.

The record behind these values is PubChem BioAssay AID1035470 (Broad Institute, 2014).
